Experimental findings from patent publication US12180193B2, “Accelerating fibrosarcoma protein degrading compounds and associated methods of use” (Arvinas Operations, Inc., priority 2020, dated 2024) are described below.

Like-named read-outs stand apart in the source and are kept apart here.

Assay [1] concerns the target T1, BRAF G466V (Homo sapiens, UniProt P15056, G466V).
T1 construct: expressed in transfected cells
Briefly: Cellular assay of target protein degradation, T-Rex 293 cells stably transfected with HA-BRAF G466V (HA immunofluorescence, high content imaging). The format is cell-based. The method in brief:
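HA-BRAF G466V levels were read by HA immunofluorescence and high-content imaging after 24 h compound exposure (final 30 nM–3 pM, 0.1% DMSO, 37 °C). Expression was induced with 0.75 ng/mL doxycycline. Outputs: half-maximal degradation concentration (DC50) and maximal degradation (Dmax) relative to control.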

In assay [2] the target is T2, BRAF V600E (Homo sapiens, UniProt P15056, V600E).
T2 construct: expressed in transfected cells
T2 sequence (P15056 whole entry V600E): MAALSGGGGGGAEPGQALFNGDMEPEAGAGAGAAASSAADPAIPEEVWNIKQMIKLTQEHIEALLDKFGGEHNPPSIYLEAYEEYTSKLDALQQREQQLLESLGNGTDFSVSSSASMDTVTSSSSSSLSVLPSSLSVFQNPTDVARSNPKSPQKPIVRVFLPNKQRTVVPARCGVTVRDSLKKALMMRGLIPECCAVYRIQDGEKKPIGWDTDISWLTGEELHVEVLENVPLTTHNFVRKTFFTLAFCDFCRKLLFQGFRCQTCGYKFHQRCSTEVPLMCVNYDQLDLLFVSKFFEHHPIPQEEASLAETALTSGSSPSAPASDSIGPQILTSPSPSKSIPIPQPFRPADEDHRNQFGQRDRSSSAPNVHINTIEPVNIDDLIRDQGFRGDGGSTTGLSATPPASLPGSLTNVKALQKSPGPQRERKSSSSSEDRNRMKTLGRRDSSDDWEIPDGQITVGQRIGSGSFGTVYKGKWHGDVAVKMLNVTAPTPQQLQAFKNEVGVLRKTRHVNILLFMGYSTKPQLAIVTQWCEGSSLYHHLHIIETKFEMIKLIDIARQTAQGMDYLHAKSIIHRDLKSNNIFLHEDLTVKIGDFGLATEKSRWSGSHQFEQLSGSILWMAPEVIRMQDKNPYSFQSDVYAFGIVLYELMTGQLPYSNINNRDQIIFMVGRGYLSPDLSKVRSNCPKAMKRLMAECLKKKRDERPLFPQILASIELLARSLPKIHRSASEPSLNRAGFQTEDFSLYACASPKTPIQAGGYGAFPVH
Nature of the assay: Cellular assay of target protein degradation, T-Rex 293 cells stably transfected with HA-BRAF_V600E (HA immunofluorescence, high content imaging). The format is cell-based. The method in brief:
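HA immunofluorescence on fixed cells, imaged by high-content reader, measured loss of HA-BRAF V600E in stably transfected T-Rex 293 cells induced with 1 ng/mL doxycycline. Compounds were applied for 24 h at 37 °C (final 0.1 nM–1 μM, 0.1% DMSO); DC50 and Dmax (% of control) were reported.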

[3] abbreviates: half maximal degradation, T-Rex 293 HA-BRAF G466V; read-out: BRaf G466V DC50.
The mark [4] stands for this setting: maximum degradation observed, T-Rex 293 HA-BRAF G466V.
Setting [5] is: half maximal degradation, T-Rex 293 HA-BRAF V600E; read-out: BRaf V600E DC50.
[6] abbreviates: maximum degradation observed, T-Rex 293 HA-BRAF V600E.

T1 sequence (P15056 whole entry G466V): as the sequence (P15056 whole entry V600E) above, with G466V, E600V counted along it

As to `C[C@@]12CN(CC3CCN(c4ccc5c(c4)CN([C@H]4CCC(=O)NC4=O)C5=O)CC3)C[C@@H]1CN(c1ccc(-c3cnc4[nH]cc(C(=O)c5c(F)ccc(NS(=O)(=O)N6CC[C@@H](F)C6)c5F)c4c3)cc1)C2` [Compound 51, (3R)-N-[3-(5-{4-[(3aS,6aR)-5-[(1-{2-[(3S)-2,6-dioxopiperidin-3-yl]-1-oxo-2,3-dihydro-1H-isoindol-5-yl}piperidin-4-yl)methyl]-3a-methyl-octahydropyrrolo[3,4-c]pyrrol-2-yl]phenyl}-1H-pyrrolo[2,3-b]pyridine-3-carbonyl)-2,4-difluorophenyl]-3-fluoropyrrolidine-1-sulfonamide], the results for the half-maximal degradation concentration (DC50) in assay [1] (setting [3]) and in assay [2] (setting [5]) were 1 to 10 nM and 50 to 500 nM, respectively. Moreover, the Dmax in assay [1] (setting [4]) and in assay [2] (setting [6]) was 35 to 70% in each case.
Turning to `C[C@@]12CN(CC3CCN(c4ccc5c(c4)CN([C@@H]4CCC(=O)NC4=O)C5=O)CC3)C[C@@H]1CN(c1ccc(-c3cnc4[nH]cc(C(=O)c5c(F)ccc(NS(=O)(=O)N6CC[C@@H](F)C6)c5F)c4c3)cc1)C2` [Compound 52, (3R)-N-[3-(5-{4-[(3aS,6aR)-5-[(1-{2-[(3R)-2,6-dioxopiperidin-3-yl]-1-oxo-2,3-dihydro-1H-isoindol-5-yl}piperidin-4-yl)methyl]-3a-methyl-octahydropyrrolo[3,4-c]pyrrol-2-yl]phenyl}-1H-pyrrolo[2,3-b]pyridine-3-carbonyl)-2,4-difluorophenyl]-3-fluoropyrrolidine-1-sulfonamide], the half-maximal degradation concentration (DC50) (usually the concentration at which degradation of the target reaches its halfway point) fell in the range of 1 to 10 nM in assay [1] (setting [3]) and 50 to 500 nM in assay [2] (setting [5]). Further, the maximal degradation (Dmax) (commonly the greatest extent of degradation seen) is 35 to 70% in assay [1] (setting [4]) and less than 35% in assay [2] (setting [6]).
On to `C[C@@H]1CN(c2ccc(-c3cnc4[nH]cc(C(=O)c5c(F)ccc(NS(=O)(=O)N6CC[C@@H](F)C6)c5F)c4c3)cc2)C[C@H](C)N1CC1CN(c2ccc3c(c2)CN(C2CCC(=O)NC2=O)C3=O)C1` (stereo partly drawn) [Compound 53, (3R)-N-[3-(5-{4-[(3R,5S)-4-({1-[2-(2,6-dioxopiperidin-3-yl)-1-oxo-2,3-dihydro-1H-isoindol-5-yl]azetidin-3-yl}methyl)-3,5-dimethylpiperazin-1-yl]phenyl}-1H-pyrrolo[2,3-b]pyridine-3-carbonyl)-2,4-difluorophenyl]-3-fluoropyrrolidine-1-sulfonamide], for which the DC50 in assay [1] (setting [3]) was less than 1 nM; in assay [2] (setting [5]), 5 to 50 nM. Further, the Dmax is greater than 70% in assay [1] (setting [4]) and 35 to 70% in assay [2] (setting [6]).
`COc1cc(C2CCN(CC3CC4(C3)CN(c3ccc(-c5cnc6[nH]cc(C(=O)c7c(F)ccc(NS(=O)(=O)N8CC[C@@H](F)C8)c7F)c6c5)cc3)C4)CC2)cc2c1C(=O)N(C1CCC(=O)NC1=O)C2` (stereo partly drawn) [Compound 54, (3R)-N-[3-(5-{4-[6-({4-[2-(2,6-dioxopiperidin-3-yl)-7-methoxy-1-oxo-2,3-dihydro-1H-isoindol-5-yl]piperidin-1-yl}methyl)-2-azaspiro[3.3]heptan-2-yl]phenyl}-1H-pyrrolo[2,3-b]pyridine-3-carbonyl)-2,4-difluorophenyl]-3-fluoropyrrolidine-1-sulfonamide]: the DC50 in assay [1] (setting [3]) is less than 1 nM; in assay [2] (setting [5]), 5 to 50 nM. Further, the Dmax in assay [1] (setting [4]) and in assay [2] (setting [6]) was 35 to 70% each time.
Turning to `O=C1CC[C@H](N2Cc3cc(N4CCC(CN5CC6(C5)CN(c5ccc(-c7cnc8[nH]cc(C(=O)c9c(F)ccc(NS(=O)(=O)N%10CC[C@@H](F)C%10)c9F)c8c7)cc5)C6)CC4)c(F)cc3C2=O)C(=O)N1` [Compound 55, (3R)-N-{3-[5-(4-{6-[(1-{2-[(3S)-2,6-dioxopiperidin-3-yl]-6-fluoro-1-oxo-2,3-dihydro-1H-isoindol-5-yl}piperidin-4-yl)methyl]-2,6-diazaspiro[3.3]heptan-2-yl}phenyl)-1H-pyrrolo[2,3-b]pyridine-3-carbonyl]-2,4-difluorophenyl}-3-fluoropyrrolidine-1-sulfonamide], the values for the DC50 in assay [1] (setting [3]) and in assay [2] (setting [5]) were less than 1 nM and 5 to 50 nM, respectively. For the same compound, the maximal degradation (Dmax) in assay [1] (setting [4]) was greater than 70%; in assay [2] (setting [6]) it was 35 to 70%.
Taken in the same sequence, the figures for `O=C1CC[C@@H](N2Cc3cc(N4CCC(CN5CC6(C5)CN(c5ccc(-c7cnc8[nH]cc(C(=O)c9c(F)ccc(NS(=O)(=O)N%10CC[C@@H](F)C%10)c9F)c8c7)cc5)C6)CC4)c(F)cc3C2=O)C(=O)N1` [Compound 56, (3R)-N-{3-[5-(4-{6-[(1-{2-[(3R)-2,6-dioxopiperidin-3-yl]-6-fluoro-1-oxo-2,3-dihydro-1H-isoindol-5-yl}piperidin-4-yl)methyl]-2,6-diazaspiro[3.3]heptan-2-yl}phenyl)-1H-pyrrolo[2,3-b]pyridine-3-carbonyl]-2,4-difluorophenyl}-3-fluoropyrrolidine-1-sulfonamide] were less than 1 nM, 5 to 50 nM, greater than 70% and 35 to 70%.
Regarding `O=C1CC[C@H](N2Cc3cc(N4C[C@H]5CN(CC6CCN(c7ccc(-c8cnc9[nH]cc(C(=O)c%10c(F)ccc(NS(=O)(=O)N%11CC[C@@H](F)C%11)c%10F)c9c8)cc7)CC6)C[C@H]5C4)ccc3C2=O)C(=O)N1` [Compound 57, (3R)-N-(3-{5-[4-(4-{[(3aR,6aS)-5-{2-[(3S)-2,6-dioxopiperidin-3-yl]-1-oxo-2,3-dihydro-1H-isoindol-5-yl}-octahydropyrrolo [3,4-c]pyrrol-2-yl]methyl}piperidin-1-yl)phenyl]-1H-pyrrolo[2,3-b]pyridine-3-carbonyl}-2,4-difluorophenyl)-3-fluoropyrrolidine-1-sulfonamide], the DC50 in assay [1] (setting [3]) was less than 1 nM; in assay [2] (setting [5]), less than 5 nM. The greatest degradation seen (Dmax) is greater than 70% in assay [1] (setting [4]) and 35 to 70% in assay [2] (setting [6]).
Regarding `O=C1CC[C@@H](N2Cc3cc(N4C[C@H]5CN(CC6CCN(c7ccc(-c8cnc9[nH]cc(C(=O)c%10c(F)ccc(NS(=O)(=O)N%11CC[C@@H](F)C%11)c%10F)c9c8)cc7)CC6)C[C@H]5C4)ccc3C2=O)C(=O)N1` [Compound 58, (3R)-N-(3-{5-[4-(4-{[(3aR,6aS)-5-{2-[(3R)-2,6-dioxopiperidin-3-yl]-1-oxo-2,3-dihydro-1H-isoindol-5-yl}-octahydropyrrolo [3,4-c]pyrrol-2-yl]methyl}piperidin-1-yl)phenyl]-1H-pyrrolo[2,3-b]pyridine-3-carbonyl}-2,4-difluorophenyl)-3-fluoropyrrolidine-1-sulfonamide], the DC50 in assay [1] (setting [3]) was less than 1 nM; in assay [2] (setting [5]), less than 5 nM. Further, the Dmax in assay [1] (setting [4]) was 35 to 70%; in assay [2] (setting [6]) it was less than 35%.
On to `COc1cc(N2CC3(CC(CN4CCN(c5ccc(-c6cnc7[nH]cc(C(=O)c8c(F)ccc(NS(=O)(=O)N9CC[C@@H](F)C9)c8F)c7c6)cc5)CC4)C3)C2)cc2c1C(=O)N(C1CCC(=O)NC1=O)C2` (stereo partly drawn) [Compound 59, (3R)-N-[3-(5-{4-[4-({2-[2-(2,6-dioxopiperidin-3-yl)-7-methoxy-1-oxo-2,3-dihydro-1H-isoindol-5-yl]-2-azaspiro[3.3]heptan-6-yl}methyl)piperazin-1-yl]phenyl}-1H-pyrrolo[2,3-b]pyridine-3-carbonyl)-2,4-difluorophenyl]-3-fluoropyrrolidine-1-sulfonamide], for which the DC50 in assay [1] (setting [3]) was in the range of 1 to 10 nM; in assay [2] (setting [5]), 5 to 50 nM. Further, the Dmax in assay [1] (setting [4]) is greater than 70%; in assay [2] (setting [6]), 35 to 70%.
Consider `CC(C)(C1CCN(c2ccc(-c3cnc4[nH]cc(C(=O)c5c(F)ccc(NS(=O)(=O)N6CC[C@@H](F)C6)c5F)c4c3)cc2)CC1)N1CC2(CN(c3ccc4c(c3)CN(C3CCC(=O)NC3=O)C4=O)C2)C1` (stereo partly drawn) [Compound 60, (3R)-N-[3-(5-{4-[4-(2-{6-[2-(2,6-dioxopiperidin-3-yl)-1-oxo-2,3-dihydro-1H-isoindol-5-yl]-2,6-diazaspiro[3.3]heptan-2-yl}propan-2-yl)piperidin-1-yl]phenyl}-1H-pyrrolo[2,3-b]pyridine-3-carbonyl)-2,4-difluorophenyl]-3-fluoropyrrolidine-1-sulfonamide], for which the Dmax is greater than 70% in assay [1] (setting [4]) and 35 to 70% in assay [2] (setting [6]). Moreover, the DC50 fell in the range of 1 to 10 nM in assay [1] (read-out: BRaf G466V DC50; half maximal degradation, T-Rex 293 HA-BRAF G466V) and 5 to 50 nM in assay [2] (read-out: BRaf V600E DC50; half maximal degradation, T-Rex 293 HA-BRAF V600E).
Turning to `O=C1CCC(N2Cc3cc(C(O)CCN4CC5(C4)CN(c4ccc(-c6cnc7[nH]cc(C(=O)c8c(F)ccc(NS(=O)(=O)N9CC[C@@H](F)C9)c8F)c7c6)cc4)C5)ccc3C2=O)C(=O)N1` (stereo partly drawn) [Compound 61, (3R)-N-(3-{5-[4-(6-{3-[2-(2,6-dioxopiperidin-3-yl)-1-oxo-2,3-dihydro-1H-isoindol-5-yl]-3-hydroxypropyl}-2,6-diazaspiro[3.3]heptan-2-yl)phenyl]-1H-pyrrolo[2,3-b]pyridine-3-carbonyl}-2,4-difluorophenyl)-3-fluoropyrrolidine-1-sulfonamide], the DC50 in assay [1] (setting [3]) was 1 to 10 nM; in assay [2] (setting [5]) it was 5 to 50 nM. For the same compound, the Dmax in assay [1] (setting [4]) and in assay [2] (setting [6]) was 35 to 70% throughout.
`O=C1CC[C@H](N2Cc3cc(CCCCN4CC5(C4)CN(c4ccc(-c6cnc7[nH]cc(C(=O)c8c(F)ccc(NS(=O)(=O)N9CC[C@@H](F)C9)c8F)c7c6)cc4)C5)ccc3C2=O)C(=O)N1` [Compound 62, (3R)-N-[3-(5-{4-[6-(4-{2-[(3S)-2,6-dioxopiperidin-3-yl]-1-oxo-2,3-dihydro-1H-isoindol-5-yl}butyl)-2,6-diazaspiro[3.3]heptan-2-yl]phenyl}-1H-pyrrolo[2,3-b]pyridine-3-carbonyl)-2,4-difluorophenyl]-3-fluoropyrrolidine-1-sulfonamide]: the DC50 in assay [1] (setting [3]) was less than 1 nM; in assay [2] (setting [5]), less than 5 nM. For the same compound, the Dmax in assay [1] (setting [4]) and in assay [2] (setting [6]) was 35 to 70% in each case.
